US20110086759A1, “CHEMICAL COMPOUNDS” (SYNGENTA CROP PROTECTION, INC., priority 2007, published 2011)

Key:
Type in all cases: in vivo
[1] = system: Ipomea hederaceae (IPOHE); experiment: Post-emergence biological efficacy, glasshouse pot test; conditions: Ipomoea hederacea, 312 h
Procedure: (§1) Seeds of Alopecurus myosuroides (ALOMY), Setaria faberi (SETFA), Echinochloa crus-galli (ECHCG), Solanum nigrum (SOLNI), Amaranthus retoflexus (AMARE) and Ipomea hederaceae (IPOHE) were sown in standard soil in pots. After cultivation for 8 days under controlled conditions in a glasshouse (at 24/16° C., day/night; 14 hours light; 65% humidity), the plants were sprayed with an aqueous spray solution derived from the formulation of the technical active ingredient in acetone/water (50:50) solution containing 0.5% Tween 20 (polyoxyethelyene sorbitan monolaurate, CAS RN 9005-64-5) to give a final dose of 1000 or 250 g/ha of test compound.
(§2) The test plants were then grown on under controlled conditions in a glasshouse (at 24/16° C., day/night; 14 hours light; 65% humidity) and watered twice daily. After 13 days the test was evaluated (100=total damage to plant; 0=no damage to plant).

[2] = system: Echinochloa crus-galli (ECHCG); experiment: as above; conditions: 312 h
Procedure: as §1, §2

[3] = system: Alopecurus myosuroides (ALOMY); experiment: as above; conditions: 312 h
Procedure: as §1, §2

Solanum nigrum (SOLNI) [4] = experiment: as above; conditions: 312 h
Procedure: as §1, §2

Setaria faberi (SETFA) [5] = experiment: as above; conditions: 312 h
Procedure: as §1, §2

[6] = system: Amaranthus retoflexus (AMARE); experiment: as above; conditions: Amaranthus retroflexus, 312 h
Procedure: as §1, §2

[7] = system: Ipomea hederaceae (IPOHE); experiment: Pre-emergence biological efficacy, glasshouse pot test; conditions: Ipomoea hederacea, 312 h
Procedure: as §1, with “one day” for “8 days”
(§3) The test plants were then grown under controlled conditions in the glasshouse (at 24/16° C., day/night; 14 hours light; 65% humidity) and watered twice daily. After 13 days the test was evaluated (100=total damage to plant; 0=no damage to plant).

[8] = system: Echinochloa crus-galli (ECHCG); experiment: as above; conditions: 312 h
Procedure: as §1, with “one day” for “8 days”
as §3

[9] = system: Alopecurus myosuroides (ALOMY); experiment: as above; conditions: 312 h
Procedure: as §1, with “one day” for “8 days”
as §3

Solanum nigrum (SOLNI) [10] = experiment: as above; conditions: 312 h
Procedure: as §1, with “one day” for “8 days”
as §3

Setaria faberi (SETFA) [11] = experiment: as above; conditions: 312 h
Procedure: as §1, with “one day” for “8 days”
as §3

[12] = system: Amaranthus retoflexus (AMARE); experiment: as above; conditions: Amaranthus retroflexus, 312 h
Procedure: as §1, with “one day” for “8 days”
as §3

[13] = post-emergence, 1,000 g/ha, evaluated after 13 days (100=total damage; 0=no damage), read-out: Percentage damage caused to weed species, IPOHE
[14] = post-emergence, 1,000 g/ha, evaluated after 13 days (100=total damage; 0=no damage), read-out: Percentage damage caused to weed species, ECHCG
[15] = post-emergence, 1,000 g/ha, evaluated after 13 days (100=total damage; 0=no damage), read-out: Percentage damage caused to weed species, ALOMY
[16] = post-emergence, 1,000 g/ha, evaluated after 13 days (100=total damage; 0=no damage), read-out: Percentage damage caused to weed species, SOLNI
[17] = post-emergence, 1,000 g/ha, evaluated after 13 days (100=total damage; 0=no damage), read-out: Percentage damage caused to weed species, SETFA
[18] = post-emergence, 1,000 g/ha, evaluated after 13 days (100=total damage; 0=no damage), read-out: Percentage damage caused to weed species, AMARE
[19] = pre-emergence, 1,000 g/ha, evaluated after 13 days (100=total damage; 0=no damage), read-out: Percentage damage IPOHE
[20] = pre-emergence, 1,000 g/ha, evaluated after 13 days (100=total damage; 0=no damage), read-out: Percentage damage ECHCG
[21] = pre-emergence, 1,000 g/ha, evaluated after 13 days (100=total damage; 0=no damage), read-out: Percentage damage ALOMY
[22] = pre-emergence, 1,000 g/ha, evaluated after 13 days (100=total damage; 0=no damage), read-out: Percentage damage SOLNI
[23] = pre-emergence, 1,000 g/ha, evaluated after 13 days (100=total damage; 0=no damage), read-out: Percentage damage SETFA
[24] = pre-emergence, 1,000 g/ha, evaluated after 13 days (100=total damage; 0=no damage), read-out: Percentage damage AMARE
[25] = Rate 1,000 g/ha, post-emergence spray, evaluated after 13 days (100=total damage to plant; 0=no damage to plant), read-out: Percentage damage caused to weed species, post-emergence, IPOHE
[26] = Rate 1,000 g/ha, post-emergence spray, evaluated after 13 days (100=total damage to plant; 0=no damage to plant), read-out: Percentage damage caused to weed species, post-emergence, ECHCG
[27] = Rate 1,000 g/ha, post-emergence spray, evaluated after 13 days (100=total damage to plant; 0=no damage to plant), read-out: Percentage damage caused to weed species, post-emergence, ALOMY
[28] = Rate 1,000 g/ha, post-emergence spray, evaluated after 13 days (100=total damage to plant; 0=no damage to plant), read-out: Percentage damage caused to weed species, post-emergence, SOLNI
[29] = Rate 1,000 g/ha, post-emergence spray, evaluated after 13 days (100=total damage to plant; 0=no damage to plant), read-out: Percentage damage caused to weed species, post-emergence, SETFA
[30] = Rate 1,000 g/ha, post-emergence spray, evaluated after 13 days (100=total damage to plant; 0=no damage to plant), read-out: Percentage damage caused to weed species, post-emergence, AMARE
[31] = pre-emergence, rate 1,000 g/ha, evaluated after 13 days (100=total damage to plant; 0=no damage), read-out: Percentage damage caused to weed species, IPOHE
[32] = pre-emergence, rate 1,000 g/ha, evaluated after 13 days (100=total damage to plant; 0=no damage), read-out: Percentage damage caused to weed species, ECHCG
[33] = pre-emergence, rate 1,000 g/ha, evaluated after 13 days (100=total damage to plant; 0=no damage), read-out: Percentage damage caused to weed species, ALOMY
[34] = pre-emergence, rate 1,000 g/ha, evaluated after 13 days (100=total damage to plant; 0=no damage), read-out: Percentage damage caused to weed species, SOLNI
[35] = pre-emergence, rate 1,000 g/ha, evaluated after 13 days (100=total damage to plant; 0=no damage), read-out: Percentage damage caused to weed species, SETFA
[36] = pre-emergence, rate 1,000 g/ha, evaluated after 13 days (100=total damage to plant; 0=no damage), read-out: Percentage damage caused to weed species, AMARE

Structure (SMILES) | pest or weed control at 1000 g/ha [1, 13] [%] | pest or weed control at 1000 g/ha [2, 14] [%] | pest or weed control at 1000 g/ha [3, 15] [%] | pest or weed control at 1000 g/ha (Solanum nigrum (SOLNI) [4]; [16]) [%] | pest or weed control at 1000 g/ha (Setaria faberi (SETFA) [5]; [17]) [%] | pest or weed control at 1000 g/ha [6, 18] [%] | pest or weed control at 1000 g/ha [7, 19] [%] | pest or weed control at 1000 g/ha [8, 20] [%] | pest or weed control at 1000 g/ha [9, 21] [%] | pest or weed control at 1000 g/ha (Solanum nigrum (SOLNI) [10]; [22]) [%] | pest or weed control at 1000 g/ha (Setaria faberi (SETFA) [11]; [23]) [%] | pest or weed control at 1000 g/ha [12, 24] [%] | further results
COC(=O)c1nc(C2CC2)nc(N[C@@H](Cc2ccc(Cl)cc2)C(=O)OC)c1Cl [4-285 (S), 5-Chloro-4-[(1S)-2-(4-chlorophenyl)-1-methoxycarbonyl-ethylamino]-2-cyclopropyl-6-methoxycarbonyl-pyrimidine] | 90 | 20 | 20 | 90 | 40 | 100 | 70 | 30 | 20 | 90 | 20 | 90 | –
COC(=O)c1nc(C2CC2)nc(N[C@@H](Cc2cccc(C(F)(F)F)c2)C(=O)OC)c1Cl [4-286 (S), 5-Chloro-2-cyclopropyl-6-methoxycarbonyl-4-[(1S)-1-methoxy-carbonyl-2-(3-trifluoromethyl-phenyl)-ethylamino]-pyrimidine] | 50 | 10 | 10 | 80 | 20 | 100 | 100 | 20 | 10 | 80 | 20 | 90 | –
COC(=O)c1nc(C2CC2)nc(N[C@@H](Cc2ccc(O)cc2)C(=O)OC)c1Cl [4-287 (S), 5-Chloro-2-cyclopropyl-4-[(1S)-2-(4-hydroxyphenyl)-1-methoxycarbonyl-ethylamino]-6-methoxycarbonyl-pyrimidine] | 70 | 60 | 20 | 80 | 40 | 100 | 80 | 10 | 20 | 80 | 20 | 80 | –
COC(=O)c1nc(C2CC2)nc(N[C@@H](Cc2ccc(OC(C)(C)C)cc2)C(=O)OC)c1Cl [4-288 (S), 4-[(1S)-2-(4-^tButoxyphenyl)-1-methoxycarbonyl-ethylamino]-5-chloro-2-cyclopropyl-6-methoxycarbonyl-pyrimidine] | 50 | 0 | 10 | 80 | 10 | 80 | 60 | 0 | 0 | 40 | 0 | 80 | –
CCOC(=O)[C@H](CSc1ccccc1)Nc1nc(C2CC2)nc(C(=O)OC)c1Cl [4-292 (R), 5-Chloro-2-cyclopropyl-4-[(1R)-1-ethoxycarbonyl-2-phenylthio-ethylamino]-6-methoxycarbonyl-pyrimidine] | 60 | 30 | 20 | 70 | 50 | 100 | 100 | 20 | 20 | 80 | 10 | 100 | –
COC(=O)c1nc(C2CC2)nc(N[C@@H](Cc2ccccc2)C(=O)OC(C)(C)C)c1Cl [4-293 (S), 4-[(1S)-1-^tButoxycarbonyl-2-phenyl-ethylamino]-5-chloro-2-cyclopropyl-6-methoxycarbonyl-pyrimidine] | – | – | – | – | – | – | – | – | – | – | – | – | pest or weed control at 1000 g/ha [1, 25]: 80%; pest or weed control at 1000 g/ha [2, 26]: 20%; pest or weed control at 1000 g/ha [3, 27]: 10%; pest or weed control at 1000 g/ha (Solanum nigrum (SOLNI) [4]; [28]): 80%; pest or weed control at 1000 g/ha (Setaria faberi (SETFA) [5]; [29]): 40%; pest or weed control at 1000 g/ha [6, 30]: 100%; pest or weed control at 1000 g/ha [7, 31]: 60%; pest or weed control at 1000 g/ha [8, 32]: 20%; pest or weed control at 1000 g/ha [9, 33]: 10%; pest or weed control at 1000 g/ha (Solanum nigrum (SOLNI) [10]; [34]): 50%; pest or weed control at 1000 g/ha (Setaria faberi (SETFA) [11]; [35]): 0%; pest or weed control at 1000 g/ha [12, 36]: 40%
COC(=O)c1nc(C2CC2)nc(N(C)[C@@H](Cc2ccccc2)C(=O)OC)c1Cl [5-283 (S), 5-Chloro-2-cyclopropyl-6-methoxycarbonyl-4-{N-[(1S)-1-methoxycarbonyl-2-phenyl-ethyl]-N-methyl-amino}-pyrimidine] | – | – | – | – | – | – | – | – | – | – | – | – | pest or weed control at 1000 g/ha [1, 25]: 50%; pest or weed control at 1000 g/ha [2, 26]: 10%; pest or weed control at 1000 g/ha [3, 27]: 10%; pest or weed control at 1000 g/ha (Solanum nigrum (SOLNI) [4]; [28]): 70%; pest or weed control at 1000 g/ha (Setaria faberi (SETFA) [5]; [29]): 40%; pest or weed control at 1000 g/ha [6, 30]: 100%; pest or weed control at 1000 g/ha [7, 31]: 30%; pest or weed control at 1000 g/ha [8, 32]: 0%; pest or weed control at 1000 g/ha [9, 33]: 0%; pest or weed control at 1000 g/ha (Solanum nigrum (SOLNI) [10]; [34]): 40%; pest or weed control at 1000 g/ha (Setaria faberi (SETFA) [11]; [35]): 0%; pest or weed control at 1000 g/ha [12, 36]: 80%
